Patent US9827181B2, “Method and pharmaceutical composition for hair growth” (INDUSTRIAL TECHNOLOGY RESEARCH INSTITUTE, priority 2013, dated 2017)
“Also recorded” adds a separate entry of the source.

Legend:
[1] = system: hair follicles on the dorsal skin of female C57BL/6 mice; assay: mouse model of hair regeneration (dorsal skin, refractory telogen phase); conditions: high dosage level (2000 μM) on dorsal skin, once a day for 10 days, negative = no hair growth;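 also: mice roughly 8 weeks old, negative control skin section treated with 100% alcohol, regrowth checked daily with day counted from start of dosing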
Protocol: The mouse model adopts female C57BL/6 mice (about 8 weeks).
In the present disclosure, the sample solution is applied on the dorsal skin, where the hair follicle stays at the refractory telogen phase, to observe whether the peptides are beneficial to hair growth.
The sample solution is applied on each of the sections for 10 days. The administration of the sample solution includes, but not limited to, the injection (50 μl) and the coating (10 μl). In addition, the dosage of the sample solution includes, but not limited to, the high dosage level (2000 μM) and the low dosage level (200 μM).
In order to avoid experimental error due to manual operation, a positive control and a negative control are predetermined on two sections. […] The second section 2 is coated with high dosage level of HGP or the pharmaceutical composition for 10 days (once a day). The third section 3 is coated with low dosage level of HGP or the pharmaceutical composition for 10 days (once a day). The fourth section 4 is coated with 100% alcohol for 10 days (once a day). The fourth section 4 is regarded as the negative control. The fifth section 5 is continuously injected with the high dosage of HGP or pharmaceutical composition for 10 days (once a day). The sixth section 6 is continuously injected with the low dosage of HGP or pharmaceutical composition for 10 days (once a day). The HGP prepared for the sections is the same amino acid sequence.
HGP or pharmaceutical composition having the same as referred at the table 1 is implemented through the above-mentioned process and then the hair regeneration condition is recorded everyday. Since the period of the refractory telogen phase is 28 days, it is regards as a negative result that no hair regeneration is observed at thirtieth day after the administration of the sample solution.
The number x of the hair growth in the table 3 means that the hair regeneration condition is observed at the x'th day after the high dosage level is administrated on the dorsal skin. For instance, the number (x=5) means that the hair growth is observed at fifth day. Furthermore, the symbol NA represents the need for further analysis. […] In addition, the “negative” represents no hair growth by using the peptide in accordance with the experimental number.

[2] = system: marker CK15 of the hair follicle stem cells; assay: immuno-fluorescent staining, marker CK15; type: in vivo, mouse; conditions: mice injected with the peptide, FIG. 3
Protocol: (§1) After the female C57BL/6 mice are injected with the SEQ ID No. 1 peptide, the immuno-fluorescent staining with the marker CK15 is performed so as to observe whether the genes, such as Wnt3a, Wnt/β-catenin are activated or not.
(§2) Thus, the SEQ ID No: 1 peptide enables activation of the regeneration of the hair follicle stem cells. In order to realize how the SEQ ID No: 1 peptide activates the regeneration of the hair follicle stem cells, the immuno-fluorescent staining in accordance with Win/β-catenin signal transduction pathway is performed. […] Since β-catenin is a downstream gene of Wnt signal transduction pathway, activating β-catenin allows the initiation of a Wnt signal transduction pathway so as to regenerate the hair follicle stem cell. […] In other words, the SEQ ID No: 1 peptide may activate the Wnt/β-catenin signal transduction pathway to activate the regeneration of the hair follicle stem cells.

[3] = system: β-catenin activity in Human Hair Follicular Keratinocytes (HHFK); assay: TCF reporter assay in HHFK cell line; type: cell-based; conditions: HHFK cells, 200 μM peptide, TOP/FOP reporter, FIG. 6; listed as SEQ ID No: 1
Protocol: (§3) FIG. 6 illustrates a schematic view of a TCF reporter assay in Human Hair Follicular Keratinocytes (HHFK) cell line. TOP represents that the reporter gene has a functional binding site where β-catenin is bound. […] CTL represents that HHFK cell line is not treated with any stimulant. iPept-1 means that HHFK cell line is treated with the SEQ ID No: 1 peptide.
(§4) In the present disclosure, Human Hair Follicular Keratinocytes (HHFK), HaCaT Keratinocyte and macrophages are used as cell models for realizing the mechanism. Reporter assay and QRT-PCR are used as bioactivity assays to identify how the SEQ ID No. 1 peptide improves hair growth.

[4] = system: Wnt16 gene expression in macrophages; assay: RT-PCR / QRT-PCR analysis in macrophages, Wnt16; type: cell-based, human; conditions: 200 μM peptide for 8 hours
Protocol: (§5) The SEQ ID No. 1 peptide is treated in HHFK, HaCaT and human macrophage to study the hair growth mechanism induced by the SEQ ID No. 1 peptide. In the present disclosure, Human Hair Follicular Keratinocytes (HHFK), HaCaT Keratinocyte and macrophages are used as cell models for realizing the mechanism. Reporter assay and QRT-PCR are used as bioactivity assays to identify how the SEQ ID No. 1 peptide improves hair growth. After macrophages are treated with the 200 μM SEQ ID No: 1 peptide (iPept-1) for 8 hours, gene regulation of Wnt family (Wnt1, Wnt2, Wnt3a, Wnt4, Wnt6, Wnt7a, Wnt7b, Wnt10a, Wnt10b, Wnt16) are detected by RT-PCR and QRT-PCR tests as shown in FIGS. 8 and 9. It is observed that the transcription level of Wnt16 and Wnt7b increases in accordance with the treatment of iPept-1.

[5] = system: Wnt7b gene expression in macrophages; assay: RT-PCR analysis in macrophages, Wnt7b; type: cell-based, human; conditions: 200 μM peptide for 8 hours
Protocol: as §5

[6] = system: Wnt3a in the hair follicle stem cells; assay: immuno-fluorescent staining, Wnt3a marker; type: in vivo, mouse; conditions: FIG. 4
Protocol: as §1, §2

[7] = system: β-catenin activity in HaCaT Keratinocytes; assay: TCF reporter assay in HaCaT Keratinocyte cell line; type: cell-based; conditions: HaCaT cells, 200 μM peptide, TOP/FOP reporter, FIG. 7; listed as SEQ ID No: 1
Protocol: as §3, with “7” for “6”, “HaCaT Keratinocyte” for “Human Hair Follicular Keratinocytes (HHFK)”, “HaCaT Keratinocytes are” for “HHFK cell line is”
as §4

[8] = system: β-catenin in the hair follicle stem cells; assay: immuno-fluorescent staining, β-catenin marker; type: in vivo, mouse; conditions: FIG. 5, listed as SEQ ID No: 1
Protocol: as §1, §2

Substance | Number x (hair regeneration observed at the x'th day) [1] | other results
PSTHVLITHSG (a designed peptide according to experiment) [P26] | 22 days | –
PSTHVLITH (a designed peptide according to experiment) [P11] | 19 days | –
PSTHVLITHTISRI (a designed peptide according to experiment) [P6] | 19 days | –
PSTHVLITGSG (a designed peptide according to experiment) [P25] | 22 days | –
PSTHVL (a designed peptide according to experiment) [P8] | 15 days | –
PSTHVLI (a designed peptide according to experiment) [P9] | negative | –
LITHTI (a designed peptide according to experiment) [P17] | 22 days | –
PSTHVLGSFGS [P18] | 22 days | –
PSTHVLITHTI (a designed peptide according to experiments) [P1] | 17 days | activation of marker CK15 of hair follicle stem cells [2]: obviously activated; relative luciferase activity (activity of β-catenin) [3]: increase the activity of β-catenin; also recorded: enhance activity of β-catenin; gene expression of Wnt16 (RT-PCR) ([4]; FIG. 8, listed as SEQ ID No: 1): activate the gene expression; gene expression of Wnt16 (RT-PCR) ([4]; FIG. 8, listed as iPept-1): increases; gene expression of Wnt16 (QRT-PCR) ([4]; FIG. 9): enhances the gene expression; gene expression of Wnt7b (RT-PCR) ([5]; FIG. 8, listed as SEQ ID No: 1): activate the gene expression; gene expression of Wnt7b (RT-PCR) ([5]; FIG. 8, listed as iPept-1): increases; activation of Wnt3a in hair follicle stem cells [6]: obviously activated; relative luciferase activity (activity of β-catenin) [7]: increase the activity of β-catenin; also recorded: enhance activity of β-catenin; activation of β-catenin in hair follicle stem cells [8]: effect on activating or regenerating the hair follicle stem cells; also recorded: activated
PSTHVLIFGSG [P24] | negative | –
PSTHVLIGSFG (a designed peptide according to experiment) [P19] | negative | –
FGSFVLITHTI (a designed peptide according to experiment) [P38] | negative | –
GSTHVLITHTI (a designed peptide according to experiment) [P30] | 22 days | –
VLITHTI (a designed peptide according to experiment) [P16] | negative | –
GSFGVLITHTI (a designed peptide according to experiment) [P32] | negative | –
STHVL (a designed peptide according to experiment) [P5] | 19 days | –
PSTHVLITHT (a designed peptide according to experiment) [P12] | 19 days | –
THVLITHTI (a designed peptide according to experiment) [P14] | negative | –
LITHT (a designed peptide according to experiment) [P4] | 17 days | –
PSTHVLITHTISR (a designed peptide according to experiment) [P28] | negative | –
PSTHVLITHTS (a designed peptide according to experiment) [P27] | negative | –

Substance | Number x (hair regeneration observed at the x'th day) [1] | other results
FGTHVLITHTI (a designed peptide according to experiment) [P36] | 15 days | –
PSTHVLITHTG (a designed peptide according to experiment) [P22] | 23 days | –
VLITH (a designed peptide according to experiment) [P3] | 17 days | –
FSTHVLITHTI (a designed peptide according to experiment) [P35] | 15 days | –
PSTHVLLTHTI (a designed peptide according to experiments) [P41] | 19 days | –
STHVLITHTI (a designed peptide according to experiment) [P13] | negative | –
GSFGFLITHTI (a designed peptide according to experiment) [P33] | negative | –
FGSFGLITHTI (a designed peptide according to experiment) [P39] | negative | –
PSTHVLSFGSG (a designed peptide according to experiment) [P23] | negative | –
PSTHVLITHTIS (a designed peptide according to experiment) [P29] | 22 days | –
HVLIT (a designed peptide according to experiment) [P2] | 17 days | –
GSFGSFITHTI (a designed peptide according to experiment) [P34] | negative | –
PSTHVLITGSF (a designed peptide according to experiment) [P20] | negative | –
GSFHVLITHTI (a designed peptide according to experiment) [P31] | negative | –
HVLITHTI (a designed peptide according to experiment) [P15] | negative | –
PSTHVLIT (a designed peptide according to experiment) [P10] | negative | –
FGSFGSITHTI (a designed peptide according to experiment) [P40] | negative | –
PSTHVLITHGS (a designed peptide according to experiment) [P21] | 23 days | –
FGSHVLITHTI (a designed peptide according to experiment) [P37] | negative | –
ITHTI (a designed peptide according to experiment) [P7] | 17 days | –
